Results reported in patent publication US9586931B2 (Merck Sharp & Dohme Corp., priority 2012, dated 2017).

target: T1, recombinant human GST-Syk (Homo sapiens, UniProt P43405); experiment: Homogeneous Time-Resolved Fluorescence (HTRF) assay for the recombinant human Syk enzyme; format: biochemical; settings: recombinant human GST-Syk 5 pM, ATP 25 μM, 10-dose titration 10 μM to 0.508 nM; read-out: rhSYK Activity IC50
T1 construct: purchased Carna Biosciences 08-176
Summary of the method: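 GST-hSyk fusion protein phosphorylated a peptide for 45 min at room temperature. The reaction was quenched with 2 nM Eu-anti-phosphotyrosine antibody and 70 nM SA-APC in 15 mM Tris pH 7.5, 40 mM EDTA, 0.01% Tween 20. The HTRF signal was read after 30 min.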

IC50 [nM] | Compound
6.1 | Cc1cc(Nc2cc(C(F)(F)F)ccn2)nc(-c2cn(CC(C)(O)CO)nn2)c1 (stereo not drawn) [Example 10.16, 2-methyl-3-[4-(4-methyl-6-{[4-(trifluoromethyl)pyridin-2-yl]amino}pyridin-2-yl)-1H-1,2,3-triazol-1-yl]propane-1,2-diol]
12.4 | Cc1cc(Nc2nccc(C(F)F)n2)cc(-c2cn(C(C)C(C)(O)CO)nn2)c1 (single isomer, unassigned) [Example 30.1, 3-(4-(3-((4-(Difluoromethyl)pyrimidin-2-yl)amino)-5-methylphenyl)-1H-1,2,3-triazol-1-yl)-2-methylbutane-1,2-diol]
24.5 | Cc1cc(Nc2cc(C(F)(F)F)ccn2)nc(-c2cn(CC(=O)N3CCC(C(=O)O)CC3)nn2)c1 (racemic) [Example 5.80, 1-{[4-(4-methyl-6-{[4-(trifluoromethyl)pyridin-2-yl]amino}pyridin-2-yl)-1H-1,2,3-triazol-1-yl]acetyl}piperidine-4-carboxylic acid]
48.6 | CC/C=C/Cn1cc(-c2cc(C)cc(Nc3cc(C(F)(F)F)ccn3)n2)nn1 [Example 5.31, 4-methyl-6-{1-[(2E)-pent-2-en-1-yl]-1H-1,2,3-triazol-4-yl}-N-[4-(trifluoromethyl)pyridin-2-yl]pyridin-2-amine]
53.1 | Cc1cc(Nc2nccc(C(F)(F)F)n2)cc(-n2cc(CC(O)CO)nn2)c1 (stereo not drawn) [Example 15.7, 3-[1-(3-methyl-5-{[4-(trifluoromethyl)pyrimidin-2-yl]amino}phenyl)-1H-1,2,3-triazol-4-yl]propane-1,2-diol]
8.4 | Cc1cc(Nc2nccc(C(F)F)n2)cc(-c2cn(CC3CNC(=O)C3)nn2)c1 (single isomer, unassigned) [Example 28.1, 4-((4-(3-((4-(difluoromethyl)pyrimidin-2-yl)amino)-5-methylphenyl)-1H-1,2,3-triazol-1-yl)methyl)pyrrolidin-2-one]
21.2 | Cc1cc(Nc2cc(C(F)(F)F)ccn2)nc(-c2cn(C3CCNC(=O)CC3)nn2)c1 (racemic) [Example 11.1, 5-[4-(4-Methyl-6-{[4-(trifluoromethyl)pyridin-2-yl]amino}pyridin-2-yl)-1H-1,2,3-triazol-1-yl]azepan-2-one]
30 | Cc1cc(Nc2nccc(C(F)(F)F)n2)cc(-n2cc([C@]3(O)CC[C@@H](O)CC3)nn2)c1 [Example 15.17, cis-1-[1-(3-methyl-5-{[4-(trifluoromethyl)pyrimidin-2-yl]amino}phenyl)-1H-1,2,3-triazol-4-yl]cyclohexane-1,4-diol]
10.2 | Cc1cc(Nc2nccc(C(F)F)n2)cc(-c2cn(CC3OC(=O)NC3C)nn2)c1 (single isomer, unassigned) [Example 7.6, 5-((4-(3-((4-(difluoromethyl)pyrimidin-2-yl)amino)-5-methylphenyl)-1H-1,2,3-triazol-1-yl)methyl)-4-methyloxazolidin-2-one]
83.9 | Cc1cc(Nc2nccc(C)n2)cc(-c2cn(CC(C)(O)C(C)(C)O)nn2)c1 (stereo not drawn) [Example 21.35, 2,3-dimethyl-1-(4-{3-methyl-5-[(4-methylpyrimidin-2-yl)amino]phenyl}-1H-1,2,3-triazol-1-yl)butane-2,3-diol]
26.6 | Cc1cc(Nc2cc(C(F)(F)F)ccn2)nc(-c2cn(C3CCC(C(N)=O)C(C)(C)C3)nn2)c1 (single isomer, unassigned) [Example 1.6, 2,2-dimethyl-4-[4-(4-methyl-6-{[4-(trifluoromethyl)pyridin-2-yl]amino}pyridin-2-yl)-1H-1,2,3-triazol-1-yl]cyclohexanecarboxamide]
117 | Cc1cc(Nc2nccc(C(F)(F)F)n2)cc(-n2cc(C3(O)CCC(O)CC3)nn2)c1 (stereo not drawn) [Example 15.16, trans-1-[1-(3-methyl-5-{[4-(trifluoromethyl)pyrimidin-2-yl]amino}phenyl)-1H-1,2,3-triazol-4-yl]cyclohexane-1,4-diol]
5.4 | COCC(O)Cn1cc(-c2cc(C)cc(Nc3cc(C(F)(F)F)ccn3)n2)nn1 (stereo not drawn) [Example 4.23, 1-methoxy-3-[4-(4-methyl-6-{[4-(trifluoromethyl)pyridin-2-yl]amino}pyridin-2-yl)-1H-1,2,3-triazol-1-yl]propan-2-ol]
44.6 | CC(O)(CO)Cn1cc(-c2cccc(Nc3nccc(C(F)(F)F)n3)c2)nn1 (single isomer, unassigned) [Example 21.6, 2-methyl-3-[4-(3-{[4-(trifluoromethyl)pyrimidin-2-yl]amino}phenyl)-1H-1,2,3-triazol-1-yl]propane-1,2-diol]
25.6 | Cc1cc(Nc2cc(C(F)(F)F)ccn2)nc(-c2cn(CC3(O)CCOCC3)nn2)c1 [Example 4.13, 4-{[4-(4-methyl-6-{[4-(trifluoromethyl)pyridin-2-yl]amino}pyridin-2-yl)-1H-1,2,3-triazol-1-yl]methyl}tetrahydro-2H-pyran-4-ol]
45.5 | Cc1cc(Nc2nccc(C(F)(F)F)n2)cc(-c2cn(C(C)C(O)CC#N)nn2)c1 (single isomer, unassigned) [Example 4.6, 3-hydroxy-4-[4-(3-methyl-5-{[4-(trifluoromethyl)pyrimidin-2-yl]amino}phenyl)-1H-1,2,3-triazol-1-yl]pentanenitrile]
28.1 | Cc1cc(Nc2cc(OCCO)ccn2)nc(-c2cn(C(C)c3ccc(C(=O)O)cc3)nn2)c1 (stereo not drawn) [Example 2.4, 4-{1-[4-(6-{[4-(2-hydroxyethoxy)pyridin-2-yl]amino}-4-methylpyridin-2-yl)-1H-1,2,3-triazol-1-yl]ethyl}benzoic acid]
2.1 | Cc1cc(Nc2cc(C(F)(F)F)ccn2)nc(-c2cn(CC3CNC(=O)O3)nn2)c1 (racemic) [Example 5.84, 5-{[4-(4-methyl-6-{[4-(trifluoromethyl)pyridin-2-yl]amino}pyridin-2-yl)-1H-1,2,3-triazol-1-yl]methyl}-1,3-oxazolidin-2-one]
8.1 | Cc1cc(Nc2cc(C(F)(F)F)ccn2)nc(-c2cn([C@H](C)c3ccc(C(=O)O)cc3)nn2)c1 [Example 9.5, 4-{(1R)-1-[4-(4-methyl-6-{[4-(trifluoromethyl)-pyridin-2-yl]amino}pyridin-2-yl)-1H-1,2,3-triazol-1-yl]ethyl}benzoic acid]
367 | Cc1cc(Nc2cc(C(F)(F)F)ccn2)nc(-c2cn(C(C)C(=O)N3CCc4onc(-c5ccc(F)cc5)c4C3)nn2)c1 (stereo not drawn) [Example 1.39, 6-(1-{2-[3-(4-fluorophenyl)-6,7-dihydroisoxazolo[4,5-c]pyridin-5(4H)-yl]-1-methyl-2-oxoethyl}-1H-1,2,3-triazol-4-yl)-4-methyl-N-[4-(trifluoromethyl)pyridin-2-yl]pyridin-2-amine]
4.3 | Cc1cc(Nc2cc(C(F)F)ccn2)nc(-c2cn(CC3OC(=O)NC3C)nn2)c1 (single isomer, unassigned) [Example 7.15, 5-((4-(6-((4-(difluoromethyl)pyridin-2-yl)amino)-4-methylpyridin-2-yl)-1H-1,2,3-triazol-1-yl)methyl)-4-methyloxazolidin-2-one]
3.3 | Cc1cc(Nc2cc(C(F)(F)F)ccn2)nc(-c2cn([C@@H](C)c3ccc(C(=O)O)cc3)nn2)c1 [Example 9.7, 4-{(1S)-1-[4-(4-methyl-6-{[4-(trifluoromethyl)pyridin-2-yl]amino}pyridin-2-yl)-1H-1,2,3-triazol-1-yl]ethyl}benzoic acid]
8.4 | Cc1cc(Nc2cc(C(F)F)ccn2)nc(-c2cn(CC3(C)CNC(=O)O3)nn2)c1 (single isomer, unassigned) [Example 7.9, 5-((4-(6-((4-(difluoromethyl)pyridin-2-yl)amino)-4-methylpyridin-2-yl)-1H-1,2,3-triazol-1-yl)methyl)-5-methyloxazolidin-2-one]
16 | Cc1cc(Nc2cc(C(F)(F)F)ccn2)nc(-c2cn(C3CCC(C(=O)O)c4ccccc43)nn2)c1 (stereo not drawn) [Example 3.19, 4-[4-(4-methyl-6-{[4-(trifluoromethyl)pyridin-2-yl]amino}pyridin-2-yl)-1H-1,2,3-triazol-1-yl]-1,2,3,4-tetrahydronaphthalene-1-carboxylic acid]
26.6 | Cc1cc(Nc2cc(C(F)(F)F)ccn2)nc(-c2cn(CC(C)(O)C(=O)O)nn2)c1 (stereo not drawn) [Example 4.18, 2-hydroxy-2-methyl-3-[4-(4-methyl-6-{[4-(trifluoromethyl)pyridin-2-yl]amino}pyridin-2-yl)-1H-1,2,3-triazol-1-yl]propanoic acid]
16.2 | Cc1cc(Nc2ncc(F)c(C(F)F)n2)cc(-c2cn(CC3CNC(=O)O3)nn2)c1 (stereo not drawn) [Example 7.36, 5-{[4-(3-{[4-(difluoromethyl)-5-fluoropyrimidin-2-yl]amino}-5-methylphenyl)-1H-1,2,3-triazol-1-yl]methyl}-1,3-oxazolidin-2-one]
11.7 | Cc1cc(Nc2cc(C(F)(F)F)ccn2)nc(-c2cn(CC3(O)CCOC3)nn2)c1 (racemic) [Example 5.13, 3-{[4-(4-methyl-6-{[4-(trifluoromethyl)pyridin-2-yl]amino}pyridin-2-yl)-1H-1,2,3-triazol-1-yl]methyl}tetrahydrofuran-3-ol]
9.9 | Cc1cc(Nc2nccc(C(F)F)n2)cc(-c2cn(CC3OC(=O)NC3C)nn2)c1 (single isomer, unassigned) [Example 7.7, 5-((4-(3-((4-(difluoromethyl)pyrimidin-2-yl)amino)-5-methylphenyl)-1H-1,2,3-triazol-1-yl)methyl)-4-methyloxazolidin-2-one]
15.9 | Cc1cc(Nc2ncc(F)c(C(F)F)n2)cc(-c2cn(CC3OC(=O)NC3C)nn2)c1 (single isomer, unassigned) [Example 7.37, 5-{[4-(3-{[4-(difluoromethyl)-5-fluoropyrimidin-2-yl]amino}-5-methylphenyl)-1H-1,2,3-triazol-1-yl]methyl}-4-methyl-1,3-oxazolidin-2-one]

Compound | IC50 [nM]
Cc1cc(Nc2nccc(C(F)F)n2)cc(-c2cn(C3CCCCC3O)nn2)c1 (stereo not drawn) [Example 4.35, 2-[4-(3-{[4-(difluoromethyl)pyrimidin-2-yl]amino}-5-methylphenyl)-1H-1,2,3-triazol-1-yl]cyclohexanol] | 11
